Measurements reported in PMC5593639, “NSC30049 inhibits Chk1 pathway in 5-FU-resistant CRC bulk and stem cell populations” (Oncotarget, 2017).

Columns and labels:
HCT-116 cells = assay: Cell survival (MTT assay), HCT-116; assay type: cell-based, human; conditions: Homo sapiens, HCT-116, 48 h
Description: (§1) The survival of cells was determined by MTT (3-(4,5-Dimethylthiazol-2yl-)-2,5-diphenyl tetrazolium bromide) assay (ATCC, Manassas, VA, USA). In principle, the viable cell number is directly proportional to the purple formazan color of the reduced MTT dye, which can be quantitatively measured by spectrophotometry. Briefly, 1,500 cells were plated in quadruplets in 96-well flat-bottom tissue culture plates. After treatment with compounds for certain periods as described in respective figure legends, 10 μl of MTT reagent was added to each well and incubated at 37°C for 4 h to allow the formation of purple color crystals of formazan. In total, 100 μl of detergent solution was added to each well, and the reaction mixture was incubated in dark for 2–4 h at room temperature. The developed color density was then measured spectrophotometrically at 570 nm using the POLARstar Omega micro-plate reader (BMG Labtech, Inc., Cary, NC, USA).

[1] = system: HCoEpiC normal colonic epithelial cell line; assay: Cell survival (MTT assay), HCoEpiC; assay type: cell-based; conditions: Homo sapiens, drug alone, 48 h
Description: as §1

RKO cells = assay: Cell survival (MTT assay), RKO; assay type: cell-based; conditions: Homo sapiens, drug alone, 48 h
Description: as §1

[2] = system: FOLFOX-resistant-HCT116 cells; assay: Cell survival (MTT assay), FOLFOX-resistant-HCT116; assay type: cell-based; conditions: Homo sapiens, FOLFOX-resistant HCT-116, 48 h
Description: (§2) In some experiments, 5-FU, leucovorin and oxaliplatin (FOLFOX)-resistant-HCT-116 and FOLFOX-resistant-HT29 cells were used. These cells were obtained from Dr. Adhip P. Majumdar (John D. Dingell VA Medical Center, Detroit, MI). These cells were generated by exposure to clinically relevant doses and schedules. The exposing schedule was for 12 cycles; each cycle lasted for one week. Briefly, the cells were first exposed to FOLFOX (25 μM 5-FU and 0.625 μM oxaliplatin) for 72 hours. The surviving cells were then cultured in normal medium without the drugs for 4 to 5 days. This cycle was repeated 12 times. The surviving cells were then split and exposed to higher doses of FOLFOX (50 μM 5-FU + 1.25 μM oxaliplatin or 100 μM 5-FU + 2.5 μM oxaliplatin) for 2 to 3 days per week for approximately 4 weeks. […]
(§3) The survival of cells was determined by MTT (3-(4,5-Dimethylthiazol-2yl-)-2,5-diphenyl tetrazolium bromide) assay (ATCC, Manassas, VA, USA). In principle, the viable cell number is directly proportional to the purple formazan color of the reduced MTT dye, which can be quantitatively measured by spectrophotometry. […] The developed color density was then measured spectrophotometrically at 570 nm using the POLARstar Omega micro-plate reader (BMG Labtech, Inc., Cary, NC, USA).

[3] = system: FOLFOX-resistant-HT29 cells; assay: Cell survival (MTT assay), FOLFOX-resistant-HT29; assay type: cell-based; conditions: Homo sapiens, FOLFOX-resistant HT-29, 48 h
Description: as §2, §3

CA2 CRC stem cell line = assay: Spheroid (sphere) formation assay; assay type: cell-based; conditions: Homo sapiens; drug alone, seventh day
Description: Live CA2 cells (100) were seeded in 384-well ultra-low attachment plates. Next, day cells were treated with different concentrations of NSC49L and 5-FU either alone or in combination. Cells were incubated for 7 days and the number of spheroids were counted in control and treated groups under an Olympus inverted microscope with a 10× magnification.

[4] = system: ALDH1, KLF4, Nanog, Oct4, Sox2, c-Myc mRNA in CA2 cells; assay: Stem cell marker and self-renewal gene mRNA levels by qRT-PCR; assay type: cell-based, human; conditions: 72 h
Description: Total RNA was isolated from control and treated cells with RNAzol reagent (Invitogen, Carlsbad, CA, USA). The expression of mRNA levels of stemness genes was determined by qRT-PCR using Bio-Rad CFX96 Real Time System C1000 Thermal Cycler. The primers used for amplification of mRNA levels of genes were from Celprogen, Inc., as shown here with their Gene Bank accession and catalog numbers: ALDHA1 (NM_000689, Cat. No. CepALDHA1-02), Klf4 (NM_004235, Cat No. CepKlf4-02), Nanog (NM_024865, Cat. No. CepNanog-02), Oct4 (NM_002701, Cat No. CepOct4-02), Sox2 (NM_003106, Cat. No. CepSox2-02), c-Myc (NM_002467, Cat. No. Cepc-Myc-02) and GAPDH (NM_002046, Cat. No. Cep-GAPDH-02).

[5] = system: Chk1 phosphorylation in HT29 cells; assay: Western blot of total and phosphorylated Chk1, HT29; assay type: cell-based, human
Description: The levels of various proteins were determined by Western blot analysis with our previously described procedure. The antibodies for phospho-Chk1(Ser317), phospho-Chk1(Ser317), phospho-Chk1(Ser319), phospho-Chk1(Ser345), Chk1, and GAPDH were purchased from Cell Signaling Technology (Danvers, MA, USA).

HCT116(p53+/+) cells = assay: MTT assay, IC50 of HU, HCT116(p53+/+); assay type: cell-based, human; conditions: HU combined with NSC49L, 72 h
Description: as §1

[6] = 2 mM HU 24 h, then NSC49L 5, 10, 20 μM additional 8 h

## ClC/C=C/C[N+]12CN3CN(CN(C3)C1)C2 [NSC49L]
HCT-116 cells; MTT assay, Figure 1B, three experiments
  IC50: 3.9 µM
HCT-116 cells; drug alone, MTT, Table 1, four estimations
  IC50: 2.8 ± 0.5 µM
[1]
  IC50: 31.9 ± 0.9 µM
RKO cells
  IC50: 4.9 ± 0.4 µM
[2]
  IC50: 5.4 µM
[3]
  IC50: 3.1 µM
CA2 CRC stem cell line
  IC50: 4.8 µM
[4]; NSC49L combined with 5-FU
  mRNA levels of ALDH1, KLF4 and Nanog: further decreased
[4]; drug alone, normalized with GAPDH
  mRNA levels of ALDH1, KLF4, Nanog, Oct4, Sox2 and c-Myc: decreased
[5]; [6]
  Chk1(S296P) levels: increased at low concentrations of NSC49L (5 μM), but decreased at 10 and 20 μM concentrations
  Chk1(S317P) level: decreased in a dose-dependent manner
[5]; 2 mM HU 24 h, then NSC49L additional 8 h
  Chk1(S345P) level: increased above the HU treatment level in a dose-dependent manner
[5]; NSC49L alone, 8 h
  Chk1 phosphorylation: did not show any significant effect
HCT116(p53+/+) cells
  IC50 of HU: further decreased
